One experiment relates to mature adipocytes. The experiment is described as follows: Intracellular triglyceride quantity in mature adipocytes. It is filed as cell-based, human. The conditions noted are these: Caffeine 300ppm. Here is the method:
(§1) Mature human adipocytes were treated with zerumbone to evaluate daily for 3 days. A daily titration of the released glycerol, reflecting lipolysis, was measured in the medium, before the media were changed in order to monitor the long-term effect.
Table 5: comparison of the intracellula triglyceride quantity found in mature adipocytes
Table 20: Comparison of the intracellular triglyceride content found in the mature adipocytes; compared effect of zerumbone, caffeine and of a mixture of zerumbone and caffeine.

Experiment [1] concerns Mature human adipocytes. The experiment is described as follows: Lipolytic effect, daily titration of released glycerol over 3 days. It counts as cell-based. As to conditions: Caffeine 300ppm; for activation at 300 ppm: Homo sapiens, Adipocyte, read-out: released glycerol, versus negative control. The protocol: as §1
In a second test, mature human adipocytes were treated with the product to evaluate daily for 3 days. A daily titration of the released glycerol was performed in the media, just before changing of the media in order to monitor the long term effect. Table 19: Comparison of the lipolytic effect of caffeine, zerumbone and of a mixture of caffeine and zerumbone on hypertrophied adipocytes in monolayer (n=4) at short and long term.

Experiment [2] concerns Mature human adipocytes. The experiment is described as follows: Lipolytic effect, released glycerol after 3 hours. It counts as cell-based. As to conditions: Adipocyte, Caffeine 300ppm, contact time 3h, read-out: released glycerol, versus negative control. The protocol: In a first test, mature human adipocytes were treated with the product to evaluate for 3 hours, then titration of the released glycerol, reflecting lipolysis, was measured in the medium.

The next experiment has as its system Sirtuin-1. The experiment is described as follows: Sirtuin-1 level in keratinocytes, ELISA. It counts as cell-based. The conditions noted are these: Homo sapiens, Keratinocyte, 144 h, positive control at 500µm, read-out: Sirtuin-1 % Variation. The protocol: Human keratinocytes were cultured in the presence or absence of the Globularia cordifolia extract for 6 days and were then grinded and the intracellular levels of sirtuin-1 were measured using an ELISA method. Results were standardized by parallel measurement of total protein (BCA).
(In general: An ELISA detects its analyte on a solid surface through an enzyme-linked reagent.)

The subject of a further experiment is BSA. Briefly: Anti-glycation activity, BSA and fructose, fluorescence. It counts as biochemical. As to conditions: positive control at 0.03%. The text has this: The anti-glycation effect of the extract of Globularia cordifolia was studied using a protein model, the BSA, and a natural reducing sugar, fructose which glycates, i.e. binds, to the protein in a non-enzymatic manner. The product of this binding is fluorescent and is monitored with a fluorimeter.

`Cn1c(=O)c2c(ncn2C)n(C)c1=O` [Caffeine, caffeine] came in with a Triglycerides in the experiment on mature adipocytes of 7120 ± 542 µM/10^6 cell. In addition, in the experiment on mature adipocytes (Homo sapiens, Adipocyte, 72 h, dns, read-out: Triglycerides Variation (%)), the inhibition at 300 ppm came to 9%. Moreover, the “released glycerol, versus negative control” value with Mature human adipocytes [1] (contact time 1 day) was “+200%”. The activation at 300 ppm in the experiment with Mature human adipocytes [1] (24 h, contact time 1 day) is 200%; in the experiment with Mature human adipocytes [1] (48 h, contact time 2 days) it was 34%; in the experiment on Mature human adipocytes [1] (72 h, contact time 3 days), 18%; with Mature human adipocytes [2], 171%.
`Cc1c(C)c2c(c(C)c1O)CCC(C)(C(=O)O)O2` (stereo not drawn) [Trolox]: the activation at 500 µM with Sirtuin-1 came to 27%.
Take `N=C(N)NN` [aminoguanidine]: the “Glycation % Variation” value in the experiment on BSA is on record as -85%.

Source of the values: EP2802310B1, “NEW USE OF ZERUMBONE AND COMPOSITIONS COMPRISING ZERUMBONE” (Sederma, priority 2012, dated 2013).
